In the assay the target is benzodiazepine receptor (Rattus norvegicus, UniProt P18508+P62813). Kind of assay: Competition radioligand binding assay with [3H]Ro 15-1788 in washed cerebellar membranes. The settings on record: [3H]Ro 15-1788 binding; comparison with parent compound ocinaplon.

As for `O=C(c1ccccn1)c1cnn2c(-c3cc(Br)nc(Br)c3)ccnc12` [2,6-dibromo, 2-Pyridinyl[7-(2,6-dibromopyridin-4-yl)pyrazolo[1,5-a]pyrimidin-3-yl]methanone], the “affinity for the benzodiazepine receptor compared with ocinaplon” value is reported as “substantially lower affinity”.
